Entries after “also recorded” stand apart in the source; their conditions may differ.
How the values were obtained:
[1] = biological target: T1, soluble epoxide hydrolase (sEH) (Homo sapiens, UniProt P34913); test: sEH inhibitory activity, fluorescence-based assay with PHOME as substrate; format: biochemical; conditions: recombinant sEH; for IC50: 37 °C, mean ± SD (n = 3); for sEH inhibitory activity (in words): compounds tested 0.1–100.0 μM
T1 construct: purchased Cayman Chemical Company 100116
T1 sequence (P34913 1-555): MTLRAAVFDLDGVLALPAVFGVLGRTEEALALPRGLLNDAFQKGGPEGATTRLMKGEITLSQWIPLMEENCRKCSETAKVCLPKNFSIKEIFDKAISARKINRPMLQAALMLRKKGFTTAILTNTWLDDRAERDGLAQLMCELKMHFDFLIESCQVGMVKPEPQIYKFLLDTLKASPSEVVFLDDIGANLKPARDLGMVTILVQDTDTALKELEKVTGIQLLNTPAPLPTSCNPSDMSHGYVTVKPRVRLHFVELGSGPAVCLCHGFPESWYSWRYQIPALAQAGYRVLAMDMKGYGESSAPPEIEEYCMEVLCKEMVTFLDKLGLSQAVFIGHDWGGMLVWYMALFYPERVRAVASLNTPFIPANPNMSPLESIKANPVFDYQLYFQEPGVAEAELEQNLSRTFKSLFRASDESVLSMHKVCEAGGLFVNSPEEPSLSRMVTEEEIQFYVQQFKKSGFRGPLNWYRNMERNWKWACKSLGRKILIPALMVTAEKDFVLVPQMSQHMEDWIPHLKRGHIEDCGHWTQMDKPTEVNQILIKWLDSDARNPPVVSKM
Procedure: The sEH inhibitory activities of compounds 1−10 were evaluated using a fluorescence-based assay with 3-phenyl-cyano(6-methoxy-2-naphthalenyl)methyl ester-2-oxiraneacetic acid (PHOME) as the substrate.
The epoxide hydrolase (sEH) enzyme is a recombinant enzyme with a concentration of 0.8 mg/mL, purchased from the Cayman Chemical Company in the United States (catalogue number: 100116, batch number: 069065) and stored at −80 °C to ensure its activity.
The enzymatic reactions were performed in a 96-well plate at 37 °C, where sEH hydrolyzed the fluorogenic substrate PHOME (MedChemExpress LLC., Princeton, NJ, USA) in the presence of each compound. The fluorescence signals were measured at an excitation wavelength of 330 nm and an emission wavelength of 465 nm. Wells containing the substrate alone (without the test compounds) served as negative controls. […] The inhibitory activity of each compound was evaluated based on the reduction in the formation of 6-methoxy-2-naphthaldehyde, a fluorescent product generated by PHOME hydrolysis.

[2] = biological target: T1, soluble epoxide hydrolase (sEH); test: sEH kinetic study (Lineweaver–Burk plots, varying inhibitor and PHOME concentrations); format: biochemical; conditions: compound 1 to 5 μM, PHOME 1 to 20 μM
Procedure: Furthermore, the inhibition mechanisms of phenolic amides 6–8 and 10 were elucidated by kinetic analysis using various concentrations of compounds and the substrate, PHOME.
The inhibitory behaviour of compounds 6–8 and 10 against sEH was examined by analyzing kinetic changes at varying inhibitor concentrations. Each compound was tested at concentrations ranging from 1 to 5 μM, whereas the substrate PHOME was applied at concentrations ranging from 1 to 20 μM. The experimental data were fitted to the Michaelis–Menten equation to evaluate the kinetic parameters. The mode of inhibition was further determined using Lineweaver–Burk plots. Data were analyzed and plotted using GraphPad Prism 7 (GraphPad Software Inc., San Diego, CA, USA).

Structure (SMILES) | IC50 [1] | sEH inhibitory activity (in words) [1] | mechanism (mode) of sEH inhibition [2]
COc1ccc2c(C(=O)C=C(C)C)c[nH]c2c1 [Compound 1, 6-methoxy-3-(3-methyl-1-oxo-2-butenyl) 1H indole] | > 100 µM | lack of inhibitory activity | 
CC(C)=CC(=O)c1c[nH]c2ccccc12 [Compound 2, 3-(3-methyl-1-oxo-2-butenyl) 1H indole] | > 100 µM | lack of inhibitory activity | 
CC(C)CC[C@]1(O)C(=O)N([C@@H]2O[C@H](CO)[C@@H](O)[C@H](O)[C@H]2O)c2ccccc21 [Compound 3, (3R)-1-(β-D-glucopyranosyl)-3-hydroxy-3-(3-methylbutyl)-2-oxindole] | > 100 µM |  | 
CC(=O)NCCc1ccc(O)c(OC2OC(CO)C(O)C(O)C2O)c1 [Compound 4, N-acetyldopamine-3-O-β-D-allopyranoside] | > 100 µM | did not show significant inhibitory activity | 
CC(=O)NCCc1ccc(O)c(O[C@@H]2O[C@H](CO)[C@@H](O)[C@H](O)[C@H]2O)c1 [Compound 5, N-acetyldopamine-3-O-β-D-glucopyranoside] | > 100 µM | did not show significant inhibitory activity | 
COc1cc(/C=C/C(=O)NCCc2ccc(O)c(O)c2)ccc1O[C@@H]1O[C@H](CO)[C@H](O)[C@H](O)[C@H]1O [Compound 6, cimicifugamide A] | 8.74 ± 0.42 µM | most potent sEH inhibitory activity | non-competitive
COc1cc(CCNC(=O)/C=C/c2ccc(O[C@@H]3O[C@H](CO)[C@H](O)[C@H](O)[C@H]3O)c(OC)c2)ccc1O [Compound 7, cimicifugamide] | 15.63 ± 0.1 µM | moderate inhibitory activity | mixed-type competitive
COc1cc(/C=C/C(=O)NCCc2ccc(O)cc2)ccc1O[C@@H]1O[C@H](CO)[C@H](O)[C@H](O)[C@H]1O [Compound 8, demethoxycimicifugamide] | 20.6 ± 0.89 µM | moderate inhibitory activity | mixed-type competitive
COc1cc(C=CC(=O)NCCc2ccc(OC3OC(CO)C(O)C(O)C3O)c(OC)c2)ccc1O (centres unmarked) [Compound 9, cimicifugamide C] | > 100 µM | did not show significant inhibitory activity; also recorded: no sEH inhibitory activity | 
COc1cc(/C=C/C(=O)NCCc2ccc(O)cc2)ccc1O [Compound 10, N-trans-feruloyl tyramine] | 17.2 ± 0.31 µM | moderate inhibitory activity | uncompetitive

From PMC12196358, “Indole Alkaloids and Phenolic Amides from the Rhizomes of Cimicifuga heracleifolia and Their In Vitro Soluble Epoxide Hydrolase (sEH) Inhibitory Activity” (Plants, 2025)
